Laboratory results as given in patent US20120196899A1, “METHODS AND PRODUCTS FOR TREATING INFLAMMATION” (Rock Creek Pharmaceuticals, Inc., priority 2010, published 2012).
Values joined by “and” are separate entries in the source; they are usually repeats but may differ in a detail not shown here. Identical values can stand only once.

Assay: Clinical chemistry, day 15
Type: in vivo, Sprague-Dawley rats
Source text: On day 15, urine was collected on all surviving animals for urinalysis. The animals were euthanized and bled via cardiac puncture. Blood was collected for hematology, clinical chemistry, and coagulation analysis. Tissues were collected, weighed, and stored in 10% neutral-buffered formalin for possible future analysis.

[1] = anatabine 0.1 mg/kg, female rats, individual animals
[2] = anatabine 0.1 mg/kg, male rats, individual animals
[3] = anatabine 0.75 mg/kg, female rats, individual animals
[4] = anatabine 0.75 mg/kg, male rats, individual animals

SMILES: C1=CCC(c2cccnc2)NC1 (racemic) [Anatabine, 1,2,3,6-tetrahydro-[2,3′]bipyridinyl]
- CHLORIDE (Mean, F, 0.1 mg/kg): 100.20 mEq/L
- CHOLESTEROL (Mean, F, 0.1 mg/kg): 76.40 mg/dL
- CREATININE (Mean, F, 0.1 mg/kg): 0.44 mg/dL
- GLUCOSE (Mean, F, 0.1 mg/kg): 207.60 mg/dL
- PHOSPHORUS (Mean, F, 0.1 mg/kg): 8.08 mg/dL
- POTASSIUM (Mean, F, 0.1 mg/kg): 5.82 mEq/L
- SODIUM (Mean, F, 0.1 mg/kg): 146.80 mEq/L
- CHLORIDE (Mean, F, 0.75 mg/kg): 98.00 mEq/L
- CHOLESTEROL (Mean, F, 0.75 mg/kg): 69.80 mg/dL
- CREATININE (Mean, F, 0.75 mg/kg): 0.44 mg/dL
- GLUCOSE (Mean, F, 0.75 mg/kg): 220.80 mg/dL
- PHOSPHORUS (Mean, F, 0.75 mg/kg): 8.64 mg/dL
- POTASSIUM (Mean, F, 0.75 mg/kg): 5.88 mEq/L
- SODIUM (Mean, F, 0.75 mg/kg): 145.00 mEq/L
- CHLORIDE (Mean, M, 0.1 mg/kg): 98.00 mEq/L
- CHOLESTEROL (Mean, M, 0.1 mg/kg): 67.20 mg/dL
- CREATININE (Mean, M, 0.1 mg/kg): 0.36 mg/dL
- PHOSPHORUS (Mean, M, 0.1 mg/kg): 10.82 mg/dL
- POTASSIUM (Mean, M, 0.1 mg/kg): 6.40 mEq/L
- SODIUM (Mean, M, 0.1 mg/kg): 146.20 mEq/L
- CHLORIDE (Mean, M, 0.75 mg/kg): 98.60 mEq/L
- CHOLESTEROL (Mean, M, 0.75 mg/kg): 62.80 mg/dL
- CREATININE (Mean, M, 0.75 mg/kg): 0.36 mg/dL
- GLUCOSE (Mean, M, 0.75 mg/kg): 202.00 mg/dL
- PHOSPHORUS (Mean, M, 0.75 mg/kg): 10.92 mg/dL
- POTASSIUM (Mean, M, 0.75 mg/kg): 6.12 mEq/L
- SODIUM (Mean, M, 0.75 mg/kg): 147.80 mEq/L
- ALBUMIN [1]: 3.6 g/dL (3×) and 3.5 g/dL and 3.8 g/dL
- ALK PHOSPHATASE [1]: 261 IU/L and 140 IU/L and 209 IU/L and 412 IU/L and 220 IU/L
- ALT [1]: 57 IU/L and 43 IU/L and 47 IU/L and 62 IU/L and 39 IU/L
- AST [1]: 78 IU/L and 69 IU/L and 70 IU/L and 86 IU/L and 82 IU/L
- BUN [1]: 21 mg/dL (2×) and 19 mg/dL (3×)
- CHLORIDE [1]: 99 mEq/L and 102 mEq/L (2×) and 97 mEq/L and 101 mEq/L
- CHOLESTEROL [1]: 90 mg/dL and 74 mg/dL and 65 mg/dL and 66 mg/dL and 87 mg/dL
- CREATININE [1]: 0.4 mg/dL (3×) and 0.5 mg/dL (2×)
- DIR BILIRUBIN [1]: 0 mg/dL
- GLOBULIN [1]: 3.1 g/dL (3×) and 3 g/dL
- GLUCOSE [1]: 224 mg/dL and 170 mg/dL and 227 mg/dL and 220 mg/dL and 197 mg/dL
- PHOSPHORUS [1]: 8.5 mg/dL (2×) and 8.2 mg/dL and 7.4 mg/dL and 7.8 mg/dL
- POTASSIUM [1]: 5.4 mEq/L and 6.3 mEq/L and 5.2 mEq/L and 5.5 mEq/L and 6.7 mEq/L
- SODIUM [1]: 147 mEq/L and 145 mEq/L
- TOT BILIRUBIN [1]: 0 mg/dL
- TOT PROTEIN [1]: 6.7 g/dL (2×) and 6.3 g/dL and 6.9 g/dL and 6.6 g/dL
- ALBUMIN [2]: 3.4 g/dL (2×) and 3.2 g/dL and 3.1 g/dL (2×)
- ALK PHOSPHATASE [2]: 470 IU/L and 227 IU/L and 364 IU/L and 358 IU/L and 618 IU/L
- ALT [2]: 92 IU/L and 65 IU/L and 74 IU/L and 44 IU/L and 78 IU/L
- AST [2]: 97 IU/L and 99 IU/L and 93 IU/L and 85 IU/L and 106 IU/L
- BUN [2]: 18 mg/dL (2×) and 21 mg/dL and 14 mg/dL and 19 mg/dL
- CHLORIDE [2]: 98 mEq/L and 97 mEq/L (2×) and 99 mEq/L (2×)
- CHOLESTEROL [2]: 65 mg/dL and 64 mg/dL and 75 mg/dL and 56 mg/dL and 76 mg/dL
- CREATININE [2]: 0.4 mg/dL (3×) and 0.3 mg/dL (2×)
- DIR BILIRUBIN [2]: 0 mg/dL
- GLOBULIN [2]: 2.9 g/dL (2×) and 2.6 g/dL and 3.1 g/dL
- GLUCOSE [2]: 258 mg/dL and 214 mg/dL and 194 mg/dL and 210 mg/dL
- PHOSPHORUS [2]: 10.3 mg/dL (2×) and 10.8 mg/dL
- POTASSIUM [2]: 5.9 mEq/L and 6.5 mEq/L and 6.6 mEq/L and 6.9 mEq/L and 6.1 mEq/L
- SODIUM [2]: 144 mEq/L and 147 mEq/L
- TOT BILIRUBIN [2]: 0 mg/dL
- TOT PROTEIN [2]: 6.3 g/dL (2×) and 5.8 g/dL and 5.9 g/dL and 6.2 g/dL
- ALBUMIN [3]: 3.5 g/dL (2×) and 3.6 g/dL (2×) and 3.4 g/dL
- ALK PHOSPHATASE [3]: 123 IU/L and 142 IU/L and 235 IU/L and 130 IU/L and 160 IU/L
- ALT [3]: 63 IU/L and 49 IU/L (2×) and 55 IU/L and 57 IU/L
- AST [3]: 95 IU/L and 69 IU/L and 76 IU/L and 54 IU/L and 72 IU/L
- BUN [3]: 15 mg/dL (3×) and 16 mg/dL (2×)
- CHLORIDE [3]: 97 mEq/L (2×) and 96 mEq/L and 99 mEq/L and 101 mEq/L
- CHOLESTEROL [3]: 66 mg/dL and 64 mg/dL and 63 mg/dL and 69 mg/dL and 87 mg/dL
- CREATININE [3]: 0.5 mg/dL (2×) and 0.4 mg/dL (3×)
- DIR BILIRUBIN [3]: 0 mg/dL
- GLOBULIN [3]: 2.7 g/dL and 3 g/dL (2×)
- GLUCOSE [3]: 237 mg/dL and 247 mg/dL and 217 mg/dL
- PHOSPHORUS [3]: 9.7 mg/dL and 7.7 mg/dL and 9.6 mg/dL and 9.2 mg/dL and 7 mg/dL
- POTASSIUM [3]: 5.5 mEq/L and 5.9 mEq/L and 6 mEq/L and 5.7 mEq/L and 6.3 mEq/L
- SODIUM [3]: 145 mEq/L (2×) and 144 mEq/L (2×) and 147 mEq/L
- TOT BILIRUBIN [3]: 0 mg/dL
- TOT PROTEIN [3]: 6.3 g/dL (2×) and 6.2 g/dL and 6.6 g/dL and 6.5 g/dL
- ALBUMIN [4]: 3.4 g/dL (2×) and 3.1 g/dL and 3.2 g/dL and 3.3 g/dL
- ALK PHOSPHATASE [4]: 479 IU/L and 297 IU/L and 325 IU/L and 337 IU/L and 416 IU/L
- ALT [4]: 75 IU/L and 57 IU/L and 65 IU/L and 50 IU/L and 87 IU/L
- AST [4]: 103 IU/L and 66 IU/L and 97 IU/L and 90 IU/L and 92 IU/L
- BUN [4]: 15 mg/dL and 18 mg/dL and 12 mg/dL and 17 mg/dL and 21 mg/dL
- CHLORIDE [4]: 98 mEq/L and 99 mEq/L (2×) and 100 mEq/L and 97 mEq/L
- CHOLESTEROL [4]: 69 mg/dL (2×) and 60 mg/dL and 54 mg/dL and 62 mg/dL
- CREATININE [4]: 0.4 mg/dL (3×) and 0.3 mg/dL (2×)
- DIR BILIRUBIN [4]: 0 mg/dL (4×) and 0.1 mg/dL
- GLOBULIN [4]: 2.6 g/dL and 2.7 g/dL and 2.9 g/dL
- GLUCOSE [4]: 222 mg/dL and 160 mg/dL and 198 mg/dL
- PHOSPHORUS [4]: 11 mg/dL and 10.7 mg/dL and 10 mg/dL and 10.6 mg/dL
- POTASSIUM [4]: 6.3 mEq/L (2×) and 5.4 mEq/L and 6 mEq/L and 6.6 mEq/L
- SODIUM [4]: 147 mEq/L and 150 mEq/L
- TOT BILIRUBIN [4]: 0 mg/dL (4×) and 0.1 mg/dL
- TOT PROTEIN [4]: 6.2 g/dL and 5.7 g/dL and 5.9 g/dL and 6.1 g/dL and 6.3 g/dL
- albumin levels (anatabine: males 0.75 and […], females 0.1 and 0.75 mg/kg): slight increases in albumin levels
- ALBUMIN (female, 0.1 mg/kg, group mean): 3.62 g/dL
- ALK PHOSPHATASE (female, 0.1 mg/kg, group mean): 248.40 IU/L
- ALT (female, 0.1 mg/kg, group mean): 49.60 IU/L
- AST (female, 0.1 mg/kg, group mean): 77.00 IU/L
- DIR BILIRUBIN (female, 0.1 mg/kg, group mean): 0.00 mg/dL
- GLOBULIN (female, 0.1 mg/kg, group mean): 3.02 g/dL
- TOT BILIRUBIN (female, 0.1 mg/kg, group mean): 0.00 mg/dL
- TOT PROTEIN (female, 0.1 mg/kg, group mean): 6.64 g/dL
- ALBUMIN (female, 0.75 mg/kg, group mean): 3.52 g/dL
- ALK PHOSPHATASE (female, 0.75 mg/kg, group mean): 158.00 IU/L
- ALT (female, 0.75 mg/kg, group mean): 54.60 IU/L
- AST (female, 0.75 mg/kg, group mean): 73.20 IU/L
- BUN (female, 0.75 mg/kg, group mean): 15.40 mg/dL
- DIR BILIRUBIN (female, 0.75 mg/kg, group mean): 0.00 mg/dL
- GLOBULIN (female, 0.75 mg/kg, group mean): 2.86 g/dL
- TOT BILIRUBIN (female, 0.75 mg/kg, group mean): 0.00 mg/dL
- TOT PROTEIN (female, 0.75 mg/kg, group mean): 6.38 g/dL
- ALBUMIN (male, 0.1 mg/kg, group mean): 3.24 g/dL
- ALK PHOSPHATASE (male, 0.1 mg/kg, group mean): 407.40 IU/L
- ALT (male, 0.1 mg/kg, group mean): 70.60 IU/L
- AST (male, 0.1 mg/kg, group mean): 96.00 IU/L
- BUN (male, 0.1 mg/kg, group mean): 18.00 mg/dL
- DIR BILIRUBIN (male, 0.1 mg/kg, group mean): 0.00 mg/dL
- GLOBULIN (male, 0.1 mg/kg, group mean): 2.86 g/dL
- TOT BILIRUBIN (male, 0.1 mg/kg, group mean): 0.00 mg/dL
- TOT PROTEIN (male, 0.1 mg/kg, group mean): 6.10 g/dL
- ALBUMIN (male, 0.75 mg/kg, group mean): 3.28 g/dL
- ALK PHOSPHATASE (male, 0.75 mg/kg, group mean): 370.80 IU/L
- ALT (male, 0.75 mg/kg, group mean): 66.80 IU/L
- AST (male, 0.75 mg/kg, group mean): 89.60 IU/L
- DIR BILIRUBIN (male, 0.75 mg/kg, group mean): 0.02 mg/dL
- TOT BILIRUBIN (male, 0.75 mg/kg, group mean): 0.02 mg/dL
- TOT PROTEIN (male, 0.75 mg/kg, group mean): 6.04 g/dL
- globulins (males, all anatabine dose levels, nicotine 0.75 mg/kg): marginally higher
